Measured values reported in patent US20240139210A1, “TREATMENT OF NF-KB-MEDIATED DISEASE” (ReveraGen BioPharma, Inc., priority 2020, published 2024).

Assays:
[1] = tested on: participants with DMD; test: VBP15-LTE prespecified safety evaluation: height percentile for age and BMI; format: in vivo, human
Experimental: Standing height and weight were assessed at each study visit. Height z-score, body mass index (BMI; kg/m 2), and BMI z-score were calculated centrally. AE reporting was done per protocol in the vamorolone trials.
(§1) Participants in the corticosteroid-treated CINRG DNHS group were treated for at least 18 months, but the total duration, dose, and regimens varied.
Statistical analyses were done on paired longitudinal outcome data using an analysis of covariance (ANCOVA) approach with change from baseline (VBP15-002) to month 18 (midpoint of VBP15-LTE). Baseline response and age were included as covariates. For the vamorolone-treated participants, age was calculated as (date of informed consent minus birthdate)/365.25. For the DNHS participants, age was calculated as (date of baseline visit used minus birthdate)/365.25. The baseline visit for a DNHS participant was the first visit. […] Timed function tests were analyzed as velocity scores to limit the impact of participants who could not perform the test (velocity=0). Velocity measures are variance-stabilizing transformations, suppressing extreme raw outliers from raw values in seconds; these help with distributional assumptions of the statistical models/tests used. Raw data (seconds) are also reported. Velocity scores for TTSTAND (event/second), TTRW (meters/second), and TTCLIMB (event/second) were inputted as 0 at the first response missing due to inability to perform the test. All other data were observed values only, without imputation. No adjustments for multiplicity on inferential statistics were specified in the iSAP.

[2] = tested on: boys with DMD; test: CINRG 12-month prednisone clinical trial, external comparator; format: in vivo, human; details: vamorolone 18-month treatment versus prednisone trial 12-month treatment
Experimental: As with the CINRG DNHS comparators, group-matching criteria were prespecified in the iSAP, and 2 independent statisticians carried out the participant matching. […] There was no corresponding 12-month assessment in vamorolone-treated participants. (Assessments of vamorolone-treated trial participants were 0, 3, 6, and 18 months).
as §1

[3] = 2.0 or 6.0 mg/kg/day for 18 months (groups C+D)
[4] = vamorolone 18 months versus corticosteroid-naïve DNHS

## C[C@@H]1C[C@H]2[C@@H]3CCC4=CC(=O)C=C[C@]4(C)C3=CC[C@]2(C)[C@@]1(O)C(=O)CO [Vamorolone, 17α,21-dihydroxy-16α-methylpregna-1,4,9(11)-triene-3,20-dione]
[1]; [3]
  Mean BMI z-score, 18-month value (SD): 1.46 (0.62)
  Mean BMI z-score, change from baseline (SD): 0.411 (0.615)
  Mean height percentile for age, 18-month value (SD): 35.24 percentile
[1]; 2.0 or 6.0 mg/kg/day for 18 months (groups C+D), listed as vamorolone
  Mean BMI z-score, change from baseline (SD): 0.41
[1]; DMD children, N 22, 18 months treatment
  LS Mean change in height percentiles for age: +6.9
[1]; original dose group B (0.75 mg/kg/day, escalated)
  BMI change from baseline to 18 months of treatment: 0.5 kg/m 2
[1]; original dose group C (2.0 mg/kg/day)
  BMI change from baseline to 18 months of treatment: 1.11 kg/m 2
[1]; original dose group D (6.0 mg/kg/day)
  BMI change from baseline to 18 months of treatment: 2.55 kg/m 2
[1]; [4]
  Mean BMI z-score, LS mean difference (SE), ANCOVA: 0.899 (0.204)
  Mean height percentile for age, LS mean difference (SE), ANCOVA: 6.72 (3.48) percentile
[2]
  Mean height percentile for age, LS mean difference (SE), ANCOVA: 10.37 percentile
